How the values were obtained:
[1] = tested on: Mutant FLT3-expressing cells
Description: (§1) The IL-3-dependent murine hematopoietic cell line Ba/F3 are transduced with either FLT3-ITD or FLT3-D835Y-containing MSCV retroviruses harboring a neomycin selectable marker, and selected for resistance to neomycin. See Kelly et al. (2002). FLT3-ITD transduced cells are selected for growth in G418 (1 mg/mL). PKC412-resistant Ba/F3 cell lines, which express FLT3-ITD harboring a mutation in the ATP-binding pocket (F691L, A627T, G697R, N676D), are developed as described previously. See Cools et al. (2004). The human AML-derived, FLT3-ITD-expressing cell line, MV4; 11 [see Quentmeier et al. (2003)], is provided by Dr. Scott Armstrong, Dana Farber Cancer Institute, Boston, Mass. The human AML-derived, FLT3-ITD-expressing cell line, MOLM-13, is modified to express luciferase and provided as MOLM13-luc+ by Dr. Andrew Kung, Dana Farber Cancer Institute, Boston, Mass. All cell lines are cultured with 5% CO2 at 37° C., at a concentration of 2×10^5 to 5×10^5 in RPMI (Mediatech, Inc., Herndon, Va.) with 10% fetal calf serum and supplemented with 1% glutamine. Parental Ba/F3 cells expressing wild-type FLT3 are similarly cultured with 15% WEHI-conditioned medium as a source of IL-3. All transfected cell lines are cultured in media supplemented with 1 mg/mL G418.

CEM/C1 = assay: CellTiter-Glo cell viability assay; type: cell-based; conditions: CEM/C1, T-ALL; 72 hours
Description: (§2) The EC50s were determined using CellTiter-Glo (Promega), a bioluminescent, cell viability assay measuring ATP levels in viable cells. Cells were plated in assay plates and incubated with a range of compound concentrations for 72 hours. Cells were lysed and ATP levels were determined using CellTiter-Glo reagent on a luminometer according to manufacturer's instructions. EC50 refers to the concentration of compound that inhibited 50% of cell growth.

EM-2 = assay: CellTiter-Glo cell viability assay; type: cell-based; conditions: Homo sapiens; EM-2, CML; 72 hours
Description: as §2

OCI-AML3 = assay: CellTiter-Glo cell viability assay; type: cell-based; conditions: Homo sapiens, OCI-AML-3, 72 hours
Description: as §2

NOMO-1 = assay: CellTiter-Glo cell viability assay; type: cell-based; conditions: Homo sapiens; NOMO-1, AML; 72 hours
Description: as §2

KU812 = assay: CellTiter-Glo cell viability assay; type: cell-based; conditions: Homo sapiens; KU812, CML; 72 hours
Description: as §2

HSB-2 = assay: CellTiter-Glo cell viability assay; type: cell-based; conditions: HSB2; HSB-2, T-ALL; 72 hours
Description: as §2

SR = assay: CellTiter-Glo cell viability assay; type: cell-based; conditions: Homo sapiens, LCIL, 72 hours
Description: as §2

CCRF-CEM = assay: CellTiter-Glo cell viability assay; type: cell-based; conditions: Homo sapiens, T-ALL, 72 hours
Description: as §2

Kasumi-1 = assay: CellTiter-Glo cell viability assay; type: cell-based; conditions: Homo sapiens; Kasumi-1, AML; 72 hours
Description: as §2

JURL-MK2 = assay: CellTiter-Glo cell viability assay; type: cell-based; conditions: JURL-MK2, CML; 72 hours
Description: as §2

L-428 = assay: CellTiter-Glo cell viability assay; type: cell-based; conditions: Homo sapiens; L-428, HL; 72 hours
Description: as §2

JK-1 = assay: CellTiter-Glo cell viability assay; type: cell-based; conditions: JK-1, CML; 72 hours
Description: as §2

MOLT-3 = assay: CellTiter-Glo cell viability assay; type: cell-based; conditions: Homo sapiens; MOLT-3, T-ALL; 72 hours
Description: as §2

ML-2 = assay: CellTiter-Glo cell viability assay; type: cell-based; conditions: Homo sapiens; ML-2, AML; 72 hours
Description: as §2

KARPAS-45 = assay: CellTiter-Glo cell viability assay; type: cell-based; conditions: KARPAS-45, T-ALL; 72 hours
Description: as §2

CEM/C2 = assay: CellTiter-Glo cell viability assay; type: cell-based; conditions: Homo sapiens; CEM/C2, T-ALL; 72 hours
Description: as §2

NALM-1 = assay: CellTiter-Glo cell viability assay; type: cell-based; conditions: NALM-1, CML; 72 hours
Description: as §2

EM-3 = assay: CellTiter-Glo cell viability assay; type: cell-based; conditions: EM-3, CML; 72 hours
Description: as §2

LAMA-84 = assay: CellTiter-Glo cell viability assay; type: cell-based; conditions: Homo sapiens; LAMA-84, CML; 72 hours
Description: as §2

EOL-1 = assay: CellTiter-Glo cell viability assay; type: cell-based; conditions: Homo sapiens, EOL1; EOL-1, AML; 72 hours
Description: as §2

KE-37 = assay: CellTiter-Glo cell viability assay; type: cell-based; conditions: Homo sapiens; KE-37, T-ALL; 72 hours
Description: as §2

CCRF-HSB-2 = assay: CellTiter-Glo cell viability assay; type: cell-based; conditions: Homo sapiens; CCRF-HSB-2, T-ALL; 72 hours
Description: as §2

Karpas-299 = assay: CellTiter-Glo cell viability assay; type: cell-based; conditions: Homo sapiens; Karpas-299, ALCL; 72 hours
Description: as §2

RL = assay: CellTiter-Glo cell viability assay; type: cell-based; conditions: Homo sapiens, B-NHL, 72 hours
Description: as §2

Reh = assay: CellTiter-Glo cell viability assay; type: cell-based; conditions: Homo sapiens, B-ALL, 72 hours
Description: as §2

NB-4 = assay: CellTiter-Glo cell viability assay; type: cell-based; conditions: Homo sapiens; NB-4, AML; 72 hours
Description: as §2

PL-21 = assay: CellTiter-Glo cell viability assay; type: cell-based; conditions: PL-21, AML; 72 hours
Description: as §2

JURL-MK1 = assay: CellTiter-Glo cell viability assay; type: cell-based; conditions: JURL-MK1, CML; 72 hours
Description: as §2

D1.1 = assay: CellTiter-Glo cell viability assay; type: cell-based; conditions: D1.1, T-ALL; 72 hours
Description: as §2

MV-4-11 = assay: CellTiter-Glo cell viability assay; type: cell-based; conditions: Homo sapiens, MV4-11; MV-4-11, AML; 72 hours
Description: (§3) See Kelly et al. (2002). […] See Cools et al. (2004).
as §2

[2] = tested on: wild-type FLT3-expressing Ba/F3 cells; conditions: FIG. 3
Description: as §1
(§4) N-[1-cyclohexyl-2-oxo-2-(6-phenethyl-octahydro-pyrrolo[2,3-c]pyridin-1-yl-ethyl]-2-methylamino-propionamide is synthesized by Novartis Pharma AG, Basel, Switzerland, and dissolved in DMSO to make 10 mM stock solutions. Serial dilutions are then made, also in DMSO, to obtain final dilutions for cellular assays.
(§5) The trypan blue exclusion assay has been previously described [see Weisberg et al. (2002)], and is used to determine proliferation of cells cultured in the presence and absence of LBW242. Cell viability is reported as percentage of control (untreated) cells. Error bars represent the standard error of the mean for each data point. Apoptosis of drug-treated cells is measured using the Annexin-V-Fluos Staining Kit (Boehringer Mannheim, Indianapolis, Ind.), as previously described. See Weisberg et al. (2002).

FLT3-ITD-Ba/F3 [3] = conditions: PKC412-sensitive line FLT3-ITD-Ba/F3; FIGS. 1-2
Description: as §1, §4, §5

G697R-Ba/F3 [4] = assay: Trypan blue exclusion proliferation assay; type: cell-based, murine; conditions: PKC412-resistant line G697R-Ba/F3; FIGS. 1-2
Excerpt: as §3
(§6) See Weisberg et al. (2002).

D835Y-Ba/F3 cells = assay: Trypan blue exclusion proliferation assay; type: cell-based, murine; conditions: PKC412-sensitive line D835Y-Ba/F3; three-day treatment, FIG. 3
Excerpt: as §3, §6

FLT3-ITD-Ba/F3 [5] = conditions: 1 μM, following 2 days and 3 days, respectively
Description: as §1, with “Parental Ba/F3 cells expressing wild-type FLT3 are similarly cultured with 15% WEHI-conditioned medium as a source of IL-3. All transfected cell lines are cultured in media supplemented with 1 mg/mL G418.” left out
The trypan blue exclusion assay has been previously described [see Weisberg et al. (2002)], and is used to determine proliferation of cells cultured in the presence and absence of LBW242. […] Apoptosis of drug-treated cells is measured using the Annexin-V-Fluos Staining Kit (Boehringer Mannheim, Indianapolis, Ind.), as previously described. […]

[6] = tested on: mutant FLT3-expressing cells; conditions: annexin-pi staining and caspase assays; effective concentrations in the micromolar range
Description: as §5

[7] = tested on: PKC412-sensitive and resistant mutant FLT3-expressing cells
Description: as §5

G697R-Ba/F3 [8] = assay: Induction of apoptosis (Annexin-V staining) and caspase activity; type: cell-based, murine; conditions: 1 μM, following 2 days and 3 days, respectively
Excerpt: as §3, §6

[9] = tested on: FLT3-ITD-Ba/F3 cells expressing firefly luciferase; assay: Mouse model of acute leukemia, tumor burden by bioluminescence imaging; type: in vivo, NCr nude mice; conditions: for Student t-test p of bioluminescence (tumor burden), vehicle versus compound alone: 50 mg/kg oral gavage, NCr nude mice
Description: FIG. 4 illustrates NCR nude mice injected with 800,000 Ba/F3-FLT3-ITD-luc+ cells via IV tail vein, and then treated for up to 10 days by oral gavage with vehicle (NMP+PEG300), LBW242 (50 mg/kg).

With `CO[C@@H]1[C@H](N(C)C(=O)c2ccccc2)C[C@H]2O[C@]1(C)n1c3ccccc3c3c4c(c5c6ccccc6n2c5c31)C(=O)NC4` [PKC412, reference compound] the “rescue of treated cells from cytotoxic effects by WEHI (source of IL-3)” value [1] was “fully rescued”.
With `CN[C@@H](C)C(=O)N[C@H](C(=O)N1CCC[C@H]1c1nc(C(=O)c2ccc(F)cc2)cs1)C1CCCCC1` [(S)—N—((S)-1-Cyclohexyl-2-{(S)-2-[4-(4-fluoro-benzoyl)-thiazol-2-yl]-pyrrolidin-1-yl}-2-oxo-ethyl)-2-methylamino-propionamide] the EC50 (CEM/C1) was 4.6 µM, the EC50 (EM-2) was 0.696 µM and the EC50 (OCI-AML3) was 4.08 µM. It also gave an EC50 (NOMO-1) of 4.08 µM, an EC50 (KU812) of 1.94 µM and an EC50 (HSB-2) of 0.4 µM. For the same compound, the EC50 (SR) was 11.6 µM, the EC50 (CCRF-CEM) was 0.676 µM and the EC50 (Kasumi-1) was 8.64 µM. The EC50 (JURL-MK2) was 12.7 µM, the EC50 (L-428) was 7.3 µM and the EC50 (JK-1) was 3.49 µM. The EC50 (MOLT-3) was 10.2 µM, the EC50 (ML-2) was 0.015 µM and the EC50 (KARPAS-45) was 10.5 µM. It also gave an EC50 (CEM/C2) of 3.83 µM, an EC50 (NALM-1) of 3.54 µM and an EC50 (EM-3) of 13.8 µM. For the same compound, the EC50 (LAMA-84) was 0.203 µM, the EC50 (EOL-1) was 1.66 µM and the EC50 (KE-37) was 5.1 µM. For the same compound, the EC50 (CCRF-HSB-2) was 6.3 µM, the EC50 (Karpas-299) was 10.8 µM and the EC50 (RL) was 9.68 µM. The EC50 (Reh) was 0.0791 µM, the EC50 (NB-4) was 0.0146 µM and the EC50 (PL-21) was 3.55 µM. It also gave an EC50 (JURL-MK1) of 11.8 µM, an EC50 (D1.1) of 7.35 µM and an EC50 (MV-4-11) of 14 µM.
For `CNC(C)C(=O)NC(C(=O)N1CCC2CCN(CCc3ccccc3)CC21)C1CCCCC1` (centres unmarked) [N-[1-cyclohexyl-2-oxo-2-(6-phenethyl-octahydro-pyrrolo[2,3-c]pyridin-1-yl-ethyl]-2-methylamino-propionamide], the “concentrations that led to death of the cells” value [2] was over 1 µM, the “inhibitory effects on cell growth” value ([2]; concentrations ≦1 μM) was “no inhibitory effects” and the “doses at which activity is displayed against the cells in culture” value (“doses at which activity is displayed” below) (FLT3-ITD-Ba/F3 [3]) was at least 1 µM. The “doses at which activity is displayed” value (G697R-Ba/F3 [4]) was at least 1 µM, the “doses at which activity is displayed” value (D835Y-Ba/F3 cells) was at least 1 µM and the “induction of apoptosis and caspase activity” value (FLT3-ITD-Ba/F3 [5]) was “found”. For the same compound, the induction of apoptosis [6] was “modestly observed”, the “inhibition of cells in vitro” value [7] was “inhibits” and the “rescue of treated cells from cytotoxic effects by WEHI (source of IL-3)” value [1] was “did not rescue”. The “induction of apoptosis and caspase activity” value (G697R-Ba/F3 [8]) was “found”, the “Student t-test p of bioluminescence (tumor burden), vehicle versus compound alone” value ([9]; day 5 post-IV injection) was at most 0.0773 and the “Student t-test p of bioluminescence (tumor burden), vehicle versus compound alone” value ([9]; day 7 post-IV injection) was at most 0.05625. The “tolerability of doses effective against mutant FLT3” value ([9]; in vivo) was “well-tolerated”.

Source: patent US20100076013A1, “Methods of Treatment” (Novartis AG, priority 2006, published 2010)
